Source: patent US20250332173A1, “COMPOUNDS AND METHODS FOR MODULATING NUCLEIC ACID SPLICING” (REMIX THERAPEUTICS INC., priority 2021, published 2025)
Like-named read-outs stand apart in the source and are kept apart here.

Columns and labels:
HTT mRNA = assay: RT-qPCR splicing assay, HTT canonical junction (CJ) and alternative junction (AJ) mRNA; assay type: cell-based, human; details: Homo sapiens; for AC50: increase in HTT alternative junction (AJ) mRNA, read-out: HTT AJ AC50
In short: (§1)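 Following a 24-hour incubation of A673 or K562 cells with serially diluted compound (3-fold steps, highest final 10 uM), the lysates undergo cDNA synthesis plus qPCR. Canonical and alternative junctions are each quantified against PPIA, GAPDH or GUSB.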

MYB mRNA = assay: RT-qPCR splicing assay, MYB canonical junction (CJ) and alternative junction (AJ) mRNA; assay type: cell-based, human; details: Homo sapiens; for AC50: increase in MYB alternative junction (AJ) mRNA, read-out: MYB AJ AC50
In short: as §1

[1] = test system: K562 (human chronic myelogenous leukemia) cells; assay: Cell Titer Glo 2.0 cell viability assay; assay type: cell-based; details: Homo sapiens, K562, 72 h, K562 cells, 72 hours, Cell Titer Glo 2.0; read-out: K562 GI50
Target C [2] = assay: HiBiT protein abundance assay, Target C (Promega Nano-Glo HiBiT Lytic Detection System, knock-in K562 cell line); assay type: cell-based, human; details: Homo sapiens, K562, 24 h, HiBiT K562 cell line, 24 hours, top dose 10 μM; read-out: Effect on protein abundance, Target C (IC50 category)
In short: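 HiBiT knock-in K562 cells (10,000/well) were treated for 24 h at 37 °C with a 10-point 3-fold dilution series, top final concentration 10 μM, DMSO ≤0.25%. Lytic HiBiT luminescence was read, normalized to unmodified K562 and DMSO-treated controls, and IC50 was interpolated from a four-parameter logistic fit.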

Target C [3] = assay: HiBiT protein abundance assay, Target C HiBiT K562 cell line; assay type: cell-based; details: Homo sapiens; HiBiT lytic detection, modified K562 cells, 24 hours, top dose 10 μM; read-out: Effect on protein abundance, Target C (IC50)
Protocol: • Promega Nano-Glo HiBiT Lytic Detection System (cat #N3030) • Corning 384-well TC-treated microplates (cat #3570) • Synthego Engineered Cells Knock-In Clones
Cells were maintained in IMDM with 10% FBS. Before the assay, cells were diluted with […] growth media (IMDM+[…] media) and were seeded in a 384-well plate at a density of 10,000 cells/well (for each cell line listed in Table 5). Each compound was prepared as a 10-point 3-fold serial dilution in DMSO with the top dose at a final concentration of 10 μM in the well. Unmodified K562 cells were added at the previously specified density with DMSO to serve as an assay baseline and positive control (PC) and DMSO only with the respective modified cell lines was added to the negative control (NC) columns. Final DMSO concentration was kept at or below 0.25%. Treated cell plates were placed in an incubator at 37° C. with […] for 24 hours. After 24 hours, 25 μL of Complete HiBit Lytic reagent was added to each well at room temperature (e.g. one plate requiring 10 mL Lytic Buffer, 100 μL LgBiT Protein, 200 μL Lytic Substrate), shaken for 5 minutes at 600 RPM, then left to sit for 10 minutes for signal to stabilize before reading on a Spark Cyto plate reader (Tecan) with a 500 ms measurement time.
To determine compound effects on protein abundance of each target in Table 5, the percent response for each respective cell line was calculated at each compound concentration as follows:
For the normalized response at each concentration, a four-parameter logistical regression was fit to the data and the response was interpolated at the […] to determine a concentration for protein abundance at […] the untreated control.

[4] = decrease in HTT canonical junction (CJ) mRNA, RT-qPCR, read-out: HTT CJ IC50
[5] = Table 5 panel, canonical junction qPCR, compound concentration having 50% response in CJ decrease, read-out: HTT IC50 (decrease in CJ mRNA levels)
[6] = Table 5 panel, canonical junction qPCR, compound concentration having 50% response in CJ decrease, read-out: MYB IC50 (decrease in CJ mRNA levels)
[7] = decrease in MYB canonical junction (CJ) mRNA, RT-qPCR, read-out: MYB CJ IC50

Compound	IC50 (HTT mRNA; [4]) [µM]	IC50 (HTT mRNA; [5]) [µM]	IC50 (MYB mRNA; [6]) [µM]	IC50 (MYB mRNA; [7]) [µM]	GI50 [1] [µM]	IC50 (Target C [2]) [µM]	IC50 (Target C [3]) [µM]	AC50 (HTT mRNA; RT-qPCR) [µM]	AC50 (MYB mRNA; RT-qPCR) [µM]
Cc1cn2nc(-c3cc(N)c4c(=O)n([C@H]5CCNC5)ccc4c3)cc(C)c2n1 [Compound 645, 8-amino-6-(2,8-dimethylimidazo[1,2-b]pyridazin-6-yl)-2-[(3S)-pyrrolidin-3-yl]isoquinolin-1-one]	> 10	1 to 10	1 to 10	1 to 10	1 to 10	> 10	–	1 to 10	1 to 10
CC(=O)Nc1cc(-c2cc(C)c3nc(C)cn3n2)cc2ccn([C@H]3CCNC3)c(=O)c12 [Compound 649, N-[6-(2,8-dimethylimidazo[1,2-b]pyridazin-6-yl)-1-oxo-2-[(3S)-pyrrolidin-3-yl]-8-isoquinolyl]acetamide]	1 to 10	1 to 10	1 to 10	1 to 10	1 to 10	1 to 10	–	1 to 10	1 to 10
CC(=O)Nc1cc(-c2cc(C)c3nc(C)cn3n2)cc2ccn([C@@H]3CCNC3)c(=O)c12 [Compound 650, N-[6-(2,8-dimethylimidazo[1,2-b]pyridazin-6-yl)-1-oxo-2-[(3R)-pyrrolidin-3-yl]-8-isoquinolyl]acetamide]	> 10	> 10	> 10	> 10	1 to 10	> 10	–	> 10	> 10
Cc1cn2cc(-c3cc(F)c4c(=O)n(C5CC(C)NC(C)C5)ccc4c3)cc(F)c2n1 (centres unmarked) [Compound 651]	0.1 to 1	< 0.1	< 0.1	< 0.1	< 0.1	0.1 to 1	–	< 0.1	< 0.1
Cc1cn2cc(-c3cc(F)c4c(=O)n([C@H]5CNC[C@H]5C)ccc4c3)cc(F)c2n1 [Compound 652, 8-fluoro-6-(8-fluoro-2-methyl-imidazo[1,2-a]pyridin-6-yl)-2-[(3R,4R)-4-methylpyrrolidin-3-yl]isoquinolin-1-one]	> 10	> 10	1 to 10	1 to 10	1 to 10	> 10	–	> 10	1 to 10
Cc1cn2cc(-c3cc(F)c4c(=O)n([C@@H]5CNC[C@@H]5C)ccc4c3)cc(F)c2n1 [Compound 653, 8-fluoro-6-(8-fluoro-2-methyl-imidazo[1,2-a]pyridin-6-yl)-2-[(3S,4S)-4-methylpyrrolidin-3-yl]isoquinolin-1-one]	> 10	> 10	1 to 10	1 to 10	> 10	> 10	–	> 10	1 to 10
Cc1cn2nc(-c3ccn4c(=O)c(C5=CCNCC5)ncc4c3)cc(C)c2n1 [Compound 1182]	0.1 to 1	0.1 to 1	0.1 to 1	0.1 to 1	0.1 to 1	–	0.1 to 1	0.1 to 1	0.1 to 1

The next lines start with results.

IC50 (HTT mRNA; [4]) [µM]	IC50 (HTT mRNA; [5]) [µM]	IC50 (MYB mRNA; [6]) [µM]	IC50 (MYB mRNA; [7]) [µM]	GI50 [1] [µM]	IC50 (Target C [2]) [µM]	IC50 (Target C [3]) [µM]	Compound	AC50 (HTT mRNA; RT-qPCR) [µM]	AC50 (MYB mRNA; RT-qPCR) [µM]
> 10	> 10	> 10	1 to 10	1 to 10	> 10	–	Cc1cn2nc(-c3cc(N)c4c(=O)n([C@@H]5CCNC5)ccc4c3)cc(C)c2n1 [Compound 646, 8-amino-6-(2,8-dimethylimidazo[1,2-b]pyridazin-6-yl)-2-[(3R)-pyrrolidin-3-yl]isoquinolin-1-one]	> 10	> 10
> 10	1 to 10	1 to 10	1 to 10	1 to 10	> 10	–	CNc1cc(-c2cc(C)c3nc(C)cn3n2)cc2ccn([C@H]3CCNC3)c(=O)c12 [Compound 647, 6-(2,8-dimethylimidazo[1,2-b]pyridazin-6-yl)-8-(methylamino)-2-[(3S)-pyrrolidin-3-yl]isoquinolin-1-one]	1 to 10	1 to 10
> 10	> 10	> 10	> 10	1 to 10	> 10	–	CNc1cc(-c2cc(C)c3nc(C)cn3n2)cc2ccn([C@@H]3CCNC3)c(=O)c12 [Compound 648, 6-(2,8-dimethylimidazo[1,2-b]pyridazin-6-yl)-8-(methylamino)-2-[(3R)-pyrrolidin-3-yl]isoquinolin-1-one]	> 10	> 10
0.1 to 1	< 0.1	< 0.1	< 0.1	< 0.1	< 0.1	–	Cn1cc2cc(-c3ncc4c(=O)n(C5CCNCC5)ccc4n3)c(O)c(F)c2n1 [Compound 1123]	< 0.1	< 0.1
1 to 10	0.1 to 1	0.1 to 1	0.1 to 1	0.1 to 1	–	1 to 10	CNC1CCN(c2ccc3cc(-c4cc(C)c5nc(C)cn5n4)ccn3c2=O)C1 (centres unmarked) [Compound 1158]	0.1 to 1	0.1 to 1
< 0.1	< 0.1	< 0.1	< 0.1	< 0.1	–	< 0.1	Cc1cn2nc(-c3ccn4c(=O)c(C5CCNCC5)ccc4c3)cc(C)c2n1 [Compound 1181]	< 0.1	< 0.1
